Source: ChEMBL document CHEMBL1201862, “PubChem BioAssay data set” (2004)
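Five compound concentrations were applied to cells in 96-well plates for 48 hours; endpoints were derived by simple linear interpolation of the resulting dose-response curve. GI50 = concentration required for 50% inhibition of growth.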 Active and inactive are the calls of the source. Cut-off read from the data, not from the text of the source: active = GI50 up to about 1.1 µM and inactive = higher.

What was measured:
Test in all cases: NCI-60 cell line screen, 48 h
CAKI-1 = test system: CAKI-1
MDA-MB-435 = test system: MDA-MB-435
DU-145 = test system: DU-145
RXF 393 = test system: RXF 393
SF-539 = test system: SF-539
OVCAR-5 = test system: OVCAR-5
BT-549 = test system: BT-549
HCT-15 = test system: HCT-15
MCF7 = test system: MCF7
SF-295 = test system: SF-295
HCT-116 = test system: HCT-116
SN12C = test system: SN12C
NCI/ADR-RES = test system: NCI/ADR-RES
HOP-92 = test system: HOP-92
SF-268 = test system: SF-268
MOLT-4 = test system: MOLT-4
HT-29 = test system: HT-29
UO-31 = test system: UO-31
NCI-H460 = test system: NCI-H460
OVCAR-4 = test system: OVCAR-4
IGROV-1 = test system: IGROV-1
OVCAR-3 = test system: OVCAR-3
HOP-62 = test system: HOP-62
NCI-H23 = test system: NCI-H23
SK-MEL-2 = test system: SK-MEL-2
SW-620 = test system: SW-620
NCI-H226 = test system: NCI-H226
NCI-H522 = test system: NCI-H522
ACHN = test system: ACHN
UACC-257 = test system: UACC-257
SNB-75 = test system: SNB-75
MDA-MB-231 = test system: MDA-MB-231
LOX IMVI = test system: LOX IMVI
PC-3 = test system: PC-3
SK-MEL-28 = test system: SK-MEL-28
MDA-N = test system: MDA-N
RPMI-8226 = test system: RPMI-8226
HCC 2998 = test system: HCC 2998
OVCAR-8 = test system: OVCAR-8
UACC-62 = test system: UACC-62
TK-10 = test system: TK-10
U-251 = test system: U-251
KM12 = test system: KM12
M14 = test system: M14
COLO 205 = test system: COLO 205
Hs-578T = test system: Hs-578T
SNB-19 = test system: SNB-19
SK-MEL-5 = test system: SK-MEL-5
K562 = test system: K562
EKVX = test system: EKVX
A549 = test system: A549
SK-OV-3 = test system: SK-OV-3
A498 = test system: A498
T47D = test system: T47D
786-0 = test system: 786-0
SR = test system: SR
Malme-3M = test system: Malme-3M
HL-60 = test system: HL-60
CCRF-CEM = test system: CCRF-CEM

Nc1nc(Cl)cc(NCCO)n1
GI50 (CAKI-1): > 100 µM (inactive) | GI50 (MDA-MB-435): > 100 µM (inactive) | GI50 (DU-145): > 100 µM (inactive) | GI50 (RXF 393): > 100 µM (inactive) | GI50 (SF-539): > 100 µM (inactive) | GI50 (OVCAR-5): > 100 µM (inactive) | GI50 (BT-549): > 100 µM (inactive) | GI50 (HCT-15): > 100 µM | GI50 (MCF7): > 100 µM (inactive) | GI50 (SF-295): > 100 µM (inactive) | GI50 (HCT-116): > 100 µM (inactive) | GI50 (SN12C): > 100 µM (inactive) | GI50 (NCI/ADR-RES): > 100 µM (inactive) | GI50 (HOP-92): > 100 µM (inactive) | GI50 (SF-268): > 100 µM (inactive) | GI50 (MOLT-4): > 100 µM (inactive) | GI50 (HT-29): > 100 µM (inactive) | GI50 (UO-31): > 100 µM (inactive) | GI50 (NCI-H460): > 100 µM (inactive) | GI50 (OVCAR-4): > 100 µM (inactive) | GI50 (IGROV-1): > 100 µM (inactive) | GI50 (OVCAR-3): > 100 µM (inactive) | GI50 (HOP-62): > 100 µM (inactive) | GI50 (NCI-H23): > 100 µM (inactive) | GI50 (SK-MEL-2): > 100 µM (inactive) | GI50 (SW-620): > 100 µM (inactive) | GI50 (NCI-H226): > 100 µM (inactive) | GI50 (NCI-H522): > 100 µM (inactive) | GI50 (ACHN): > 100 µM (inactive) | GI50 (UACC-257): > 100 µM (inactive) | GI50 (SNB-75): > 100 µM (inactive) | GI50 (MDA-MB-231): > 100 µM (inactive) | GI50 (LOX IMVI): > 100 µM (inactive) | GI50 (PC-3): > 100 µM (inactive) | GI50 (SK-MEL-28): > 100 µM (inactive) | GI50 (MDA-N): > 100 µM (inactive) | GI50 (RPMI-8226): > 100 µM (inactive) | GI50 (HCC 2998): 72.6 µM (inactive) | GI50 (OVCAR-8): > 100 µM (inactive) | GI50 (UACC-62): > 100 µM (inactive) | GI50 (TK-10): > 100 µM (inactive) | GI50 (U-251): > 100 µM (inactive) | GI50 (KM12): > 100 µM (inactive) | GI50 (M14): > 100 µM (inactive) | GI50 (COLO 205): > 100 µM (inactive) | GI50 (Hs-578T): > 100 µM (inactive) | GI50 (SNB-19): > 100 µM (inactive) | GI50 (SK-MEL-5): > 100 µM (inactive) | GI50 (K562): > 100 µM (inactive) | GI50 (EKVX): > 100 µM (inactive) | GI50 (A549): > 100 µM (inactive) | GI50 (SK-OV-3): > 100 µM (inactive) | GI50 (A498): > 100 µM (inactive) | GI50 (T47D): > 100 µM (inactive) | GI50 (786-0): > 100 µM (inactive) | GI50 (SR): > 100 µM (inactive) | GI50 (Malme-3M): > 100 µM (inactive)

CC(=O)Oc1c(C)c2c(c3ccccc13)OC(C)(C)C2
GI50 (CAKI-1): 24.2 µM (inactive) | GI50 (MDA-MB-435): 17.2 µM (inactive) | GI50 (DU-145): 17.3 µM (inactive) | GI50 (RXF 393): 20.7 µM (inactive) | GI50 (SF-539): 20.4 µM (inactive) | GI50 (OVCAR-5): 19.5 µM (inactive) | GI50 (BT-549): 24.7 µM (inactive) | GI50 (HCT-15): 17 µM | GI50 (MCF7): 17.5 µM (inactive) | GI50 (SF-295): 17 µM (inactive) | GI50 (HCT-116): 18 µM (inactive) | GI50 (SN12C): 18.6 µM (inactive) | GI50 (NCI/ADR-RES): 21 µM (inactive) | GI50 (HOP-92): 17.8 µM (inactive) | GI50 (SF-268): 15.5 µM (inactive) | GI50 (MOLT-4): 15.1 µM (inactive) | GI50 (HT-29): 18.1 µM (inactive) | GI50 (HL-60): 22.4 µM (inactive) | GI50 (UO-31): 18.2 µM (inactive) | GI50 (NCI-H460): 19.2 µM (inactive) | GI50 (OVCAR-4): 16.1 µM (inactive) | GI50 (IGROV-1): 17.2 µM (inactive) | GI50 (OVCAR-3): 22.5 µM (inactive) | GI50 (HOP-62): 20.1 µM (inactive) | GI50 (NCI-H23): 14 µM (inactive) | GI50 (SK-MEL-2): 18 µM (inactive) | GI50 (SW-620): 19.8 µM (inactive) | GI50 (NCI-H226): 22 µM (inactive) | GI50 (NCI-H522): 18.4 µM (inactive) | GI50 (ACHN): 17.3 µM (inactive) | GI50 (UACC-257): 12.2 µM (inactive) | GI50 (SNB-75): 19 µM (inactive) | GI50 (MDA-MB-231): 23.9 µM (inactive) | GI50 (PC-3): 22.6 µM (inactive) | GI50 (SK-MEL-28): 18.8 µM (inactive) | GI50 (MDA-N): 12 µM (inactive) | GI50 (RPMI-8226): 15.7 µM (inactive) | GI50 (HCC 2998): 16.5 µM (inactive) | GI50 (OVCAR-8): 16.8 µM (inactive) | GI50 (UACC-62): 16.3 µM (inactive) | GI50 (TK-10): 18.6 µM (inactive) | GI50 (U-251): 18.6 µM (inactive) | GI50 (KM12): 14.5 µM (inactive) | GI50 (M14): 16.4 µM (inactive) | GI50 (COLO 205): 20.3 µM (inactive) | GI50 (CCRF-CEM): 24.7 µM (inactive) | GI50 (Hs-578T): 21 µM (inactive) | GI50 (SNB-19): 26.3 µM (inactive) | GI50 (SK-MEL-5): 10.5 µM (inactive) | GI50 (K562): 29.2 µM (inactive) | GI50 (EKVX): 19.8 µM (inactive) | GI50 (A549): 18.1 µM (inactive) | GI50 (SK-OV-3): 30.5 µM (inactive) | GI50 (A498): 20.9 µM (inactive) | GI50 (T47D): 20.3 µM (inactive) | GI50 (786-0): 15.3 µM (inactive) | GI50 (SR): 17.7 µM (inactive) | GI50 (Malme-3M): 16.3 µM (inactive)

CNc1ccc([N+](=O)[O-])cc1C(=O)N1CCC[C@H]1CO
GI50 (CAKI-1): > 100 µM (inactive) | GI50 (MDA-MB-435): > 100 µM (inactive) | GI50 (DU-145): > 100 µM (inactive) | GI50 (RXF 393): > 100 µM (inactive) | GI50 (OVCAR-5): > 100 µM (inactive) | GI50 (BT-549): > 100 µM (inactive) | GI50 (HCT-15): > 100 µM | GI50 (MCF7): > 100 µM (inactive) | GI50 (SF-295): > 100 µM (inactive) | GI50 (HCT-116): > 100 µM (inactive) | GI50 (SN12C): > 100 µM (inactive) | GI50 (NCI/ADR-RES): > 100 µM (inactive) | GI50 (HOP-92): > 100 µM (inactive) | GI50 (SF-268): > 100 µM (inactive) | GI50 (MOLT-4): > 100 µM (inactive) | GI50 (HT-29): > 100 µM (inactive) | GI50 (HL-60): > 100 µM (inactive) | GI50 (UO-31): > 100 µM (inactive) | GI50 (NCI-H460): > 100 µM (inactive) | GI50 (OVCAR-4): > 100 µM (inactive) | GI50 (IGROV-1): > 100 µM (inactive) | GI50 (HOP-62): > 100 µM (inactive) | GI50 (NCI-H23): > 100 µM (inactive) | GI50 (SK-MEL-2): > 100 µM (inactive) | GI50 (SW-620): > 100 µM (inactive) | GI50 (NCI-H226): 19.5 µM (inactive) | GI50 (NCI-H522): > 100 µM (inactive) | GI50 (ACHN): > 100 µM (inactive) | GI50 (UACC-257): > 100 µM (inactive) | GI50 (SNB-75): > 100 µM (inactive) | GI50 (MDA-MB-231): > 100 µM (inactive) | GI50 (LOX IMVI): > 100 µM (inactive) | GI50 (PC-3): > 100 µM (inactive) | GI50 (SK-MEL-28): > 100 µM (inactive) | GI50 (MDA-N): > 100 µM (inactive) | GI50 (RPMI-8226): > 100 µM (inactive) | GI50 (HCC 2998): > 100 µM (inactive) | GI50 (OVCAR-8): > 100 µM (inactive) | GI50 (UACC-62): > 100 µM (inactive) | GI50 (TK-10): > 100 µM (inactive) | GI50 (U-251): > 100 µM (inactive) | GI50 (KM12): > 100 µM (inactive) | GI50 (M14): > 100 µM (inactive) | GI50 (COLO 205): > 100 µM (inactive) | GI50 (CCRF-CEM): > 100 µM (inactive) | GI50 (Hs-578T): > 100 µM (inactive) | GI50 (SNB-19): > 100 µM (inactive) | GI50 (SK-MEL-5): > 100 µM (inactive) | GI50 (K562): > 100 µM (inactive) | GI50 (EKVX): > 100 µM (inactive) | GI50 (A549): > 100 µM (inactive) | GI50 (SK-OV-3): > 100 µM (inactive) | GI50 (A498): > 100 µM (inactive) | GI50 (T47D): > 100 µM (inactive) | GI50 (786-0): > 100 µM (inactive) | GI50 (SR): > 100 µM (inactive) | GI50 (Malme-3M): > 100 µM (inactive)
